Converted amounts (≈) assume the structure as drawn. “Also recorded” adds a separate entry of the source. Like-named read-outs stand apart in the source and are kept apart here. Blank lines part the entries; values can stand above or below the compound they belong to.
What was measured:
[1] = Neutral red uptake cytotoxicity assay; format: cell-based; conditions: human, uninfected human foreskin fibroblast (HFF) cells
Method: Two days prior to use, human foreskin fibroblast (HiFF) cells were plated into six well plates and incubated at 37° C. with 5% CO2 and 90% humidity. On the date of assay, the drug was made upon MEM with 2% FBS then serially diluted 1:5 in MEM using six concentrations of drug. The initial starting concentration was 100/μg/ml down to 0.03 μg/ml. The virus used for infection was diluted in MEM containing 10% FBS to a desired concentration which gave 20-30 plaques per well. The media was aspirated from the wells and 0.2 ml of virus was added to each well in triplicate with 0.2 ml of media being added to drug toxicity wells. The plates were then incubated for one hour with shaking every fifteen minutes. After incubation, MEM containing the various drug concentrations was added to appropriate wells in a volume of 2.0 ml. Additional media was added again on day five and the cultures incubated for a total of 10 days. At the end of the incubation, the liquid was then aspirated off, stained with 6% neutral red solution for six hours, washed and plaques enumerated using a stereomicroscope. […]

Ellen strain of VZV = assay: Plaque reduction assay for Varicella-Zoster virus in HFF cells; format: cell-based; conditions: 10 days
Method: Two days prior to use, human foreskin fibroblast (HiFF) cells were plated into six well plates and incubated at 37° C. with 5% CO2 and 90% humidity. On the date of assay, the drug was made upon MEM with 2% FBS then serially diluted 1:5 in MEM using six concentrations of drug. The initial starting concentration was 100/μg/ml down to 0.03 μg/ml. The virus used for infection was diluted in MEM containing 10% FBS to a desired concentration which gave 20-30 plaques per well. The media was aspirated from the wells and 0.2 ml of virus was added to each well in triplicate with 0.2 ml of media being added to drug toxicity wells. The plates were then incubated for one hour with shaking every fifteen minutes. After incubation, MEM containing the various drug concentrations was added to appropriate wells in a volume of 2.0 ml. Additional media was added again on day five and the cultures incubated for a total of 10 days. At the end of the incubation, the liquid was then aspirated off, stained with 6% neutral red solution for six hours, washed and plaques enumerated using a stereomicroscope. The results are compared with untreated control wells, and EC50 and CC50 values calculated.

EBV [2] = assay: Anti-EBV slot blot assay of EBV DNA in H1 cells; format: cell-based, Epstein-Barr virus
Method: A high yield of BBV producing cell line H1 derived from human P3HR1 cells was used in this study. Cells were cultured in RPMIf medium supplemented with 10% dialyzed fetal bovine serum and 100 μg/ml Kanamycin and were grown at 37° C. in a humidified incubator containing 5% CO2.
H1 cells were maintained in logarithmic phase of growth for two days prior to the initiation of treatment. The H1 cells were seeded in 24 well plates at the density of 2×10^5 cells per well in 2 ml of fresh medium with or without drug treatment and were incubated at 37° C. for 5 days. Following the period of drug treatment the cells were pelleted and used to determine the inhibitory effect of drug on EBV DNA by slot blot assay.
Autoradiographfic results were anlayzed by densitometry. […] See, for example, Yao, et al., Antimic. Agzents and Chemo., July, 1993, p.

cell growth = assay: Cytotoxicity (cell growth)
mitochondrial DNA = assay: mt DNA content (toxicity to mitochondria, slot blot rehybridization); format: cell-based, human
Source text: Autoradiographfic results were anlayzed by densitometry. […] See, for example, Yao, et al., Antimic.

[3] = system: lactate accumulation in the medium; assay: Lactate accumulation in medium of drug treated cultures
[4] = Pharmacokinetics in BDF1 mice; conditions: 50 mg/kg po versus ip/iv, preliminary
Method: At the times indicated in FIG. 5, blood was drawn into a heparinized capillary from the retro orbital plexus of female BDF1 mice. The plasma was separated from the formed elements by centrifugation. Then 100 μl of plasma was mixed with an equal volume of 30% trichloracetic acid and kept on ice for 10 minutes. […] The aqueous phase was moved to a clean tube and extracted again with the trioctylamine:freon mixture. Then 50 μl of the neutralized aqueous phase was injected onto a Perkin Elmer HPLC system. The samples were eluted from an Altech C18 column with an isocratic solvent system of water at 2 ml per min. The concentrations of the unknown samples were determined by comparison with standards of known concentrations.

[5] = Stability at different pH's (HPLC); conditions: for stability (in words): pH 2
Method: In order to explore the possibility of using L-I-OddU and L-Br-OddU orally for the treatment of EBV-associated diseases, its stability at different pH levels is important. L-I-OddU was exposed to different pH solutions as indicated for 3 hr at 37°. The percentage of compound remaining as L-I-OddU was examined using HPLC with a C18 column.

EBV [6] = conditions: reported in Chu et al. PCT application; cited from earlier work
HBV = HBV assay; format: cell-based
Source text: (§1) Plaque reduction assays used for HSV-1, HSV-2 and CMV have been previously described. See, Gao, et al., Antimic. Agents and Chemo., May, 1990, p. 808-812 (HSV-Plaque); Cheng, et al., Proc. Natl. Acad. Sci. USA, vol. 80, 2767-2770 (May 1983) (CMV plaque reduction assay). The methods for testing against EBV, HBV, and HIV were also used as described previously. See, Yao, et al., Antimic. Agents and Chemo., July, 1993, p.

HSV-1 = assay: Plaque reduction assay HSV-1; format: cell-based; conditions: Human alphaherpesvirus 1; HSV-1, plaque reduction
Source text: as §1

HSV-2 = assay: Plaque reduction assay HSV-2; format: cell-based; conditions: Human alphaherpesvirus 2; HSV-2, plaque reduction
Source text: as §1

CMV = assay: Plaque reduction assay CMV; format: cell-based; conditions: Human betaherpesvirus 5
Source text: as §1

HIV = HIV assay; format: cell-based; conditions: Human immunodeficiency virus 1
Source text: as §1

[7] = Human alphaherpesvirus 3, 240 h, read-out: EC50
[8] = H1 cells, 5 days, EC50 of Table 2
[9] = human gammaherpesvirus 4, 120 h, H1 cells, 5 days, EC50 of Table 2, read-out: Anti-EBV EC50
[10] = read-out: Cytotoxicity IC50, cell growth
[11] = H1 cells, 5 days, EC50 of Table 2, read-out: Anti-EBV EC50

SMILES: O=c1[nH]c(=O)n(C2COC(CO)O2)cc1Br [D-Br-OddU, reference compound]
Anti-EBV EC50 (EBV [2]; [8]): Inactive

SMILES: O=c1[nH]c(=O)n(C2COC(CO)O2)cc1I [D-I-OddU, reference compound]
Anti-EBV EC50 (EBV [2]; [8]): Inactive

SMILES: O=c1[nH]c(=O)n([C@@H]2CO[C@H](CO)O2)cc1Br [L-Br-OddU]
induction of lactate accumulation in the medium [3]: lack of induction
efficiency of oral uptake [4]: about 60%
IC50 (cell growth; [10]): > 100 µM
EC50 (Ellen strain of VZV): 0.8 µg/mL (≈ 2.73 µM)
% Remaining ([5]; pH1, 3 hr at 37°): 105%
stability (in words) [5]: stable
anti-EBV activity (in words) (EBV [2]): most potent
EC50 (EBV [2]; [11]): 0.2 µM
EC50 (EBV [2]; H1 cells, 5 days, second EC50 column of Table 2, read-out: Anti-EBV EC50): 2 µM
mt DNA Content ID50 (mitochondrial DNA): Inactive

SMILES: O=c1[nH]c(=O)n([C@@H]2CO[C@H](CO)O2)cc1C(F)(F)F [L-CF3-OddU, (2S,4S)-1-[2-(Etydroxymethyl)-1,3-dioxolan-4-yl]-5-trifluoromethyluracil]
IC50 (cell growth; [10]): > 100 µM
EC50 (EBV [2]; [11]): 3 µM
mt DNA Content ID50 (mitochondrial DNA): Inactive

SMILES: Cc1cn([C@H]2O[C@@H](CO)[C@H](O)[C@H]2F)c(=O)[nH]c1=O [L-FMAU, 2′-fluoro-5-methyl-β-L-arabinofuranosyluridine, reference compound]
activity against EBV (PCT/US95/01253) (EBV [6]): good activity
activity against HBV (in words) (HBV): active
anti-EBV activity (in words) (EBV [2]): active

SMILES: O=c1[nH]c(=O)n([C@@H]2CO[C@H](CO)O2)cc1I [L-I-OddU, (2S,4S)-1-[2-(Hydroxymethyl)-1,3-dioxolan-4-yl]-5-iodouracil]
CC50 at 10 days [1]: > 100 µg/mL
induction of lactate accumulation in the medium [3]: lack of induction
EC50 (HSV-1): 50 µM
EC50 (HSV-2): > 50 µM
IC50 (cell growth; human, H1 cells): > 100 µM
EC50 (Ellen strain of VZV; [7]): 4.2 µg/mL (≈ 12.4 µM)
% Remaining ([5]; pH1, 3 hr at 37°): 102%
stability (in words) [5]: stable
% Remaining ([5]; pH2, 3 hr at 37°): 102%
% Remaining ([5]; pH5, 3 hr at 37°): 102%
% Remaining ([5]; pH7, 3 hr at 37°): 99%
% Remaining ([5]; pH9, 3 hr at 37°): 100%
activity against HBV (in words) (HBV): little activity
EC50 (HBV; Hepatitis B virus, HBV): > 10 µM
EC50 (CMV): > 10 µM
anti-EBV activity (in words) (EBV [2]): most potent; also recorded: slightly more potent than L-Br-OddU
EC50 against EBV relative to L-FMAU (EBV [2]; comparison with L-FMAU): at least four times lower than L-FMAU
EC50 (EBV [2]; [9]): 0.1 µM
EC50 (EBV [2]; human gammaherpesvirus 4, 120 h, H1 cells, 5 days, second EC50 column of Table 2, read-out: Anti-EBV EC50): 0.4 µM
EC50 (EBV [2]; human gammaherpesvirus 4, EBV, Table 3, read-out: EC50): 0.1 µM
mt DNA Content ID50 (mitochondrial DNA): Inactive
EC50 (HIV): > 100 µM

SMILES: O=c1ccn([C@@H]2CO[C@H](CO)O2)c(=O)[nH]1 [L-OddU, (2S,4S)-1-[2-(Hydroxymethyl)-1,3-dioxolan-4-yl]uracil]
IC50 (cell growth; human, H1 cells): > 100 µM
EC50 (EBV [2]; [9]): > 50 µM
mt DNA Content ID50 (mitochondrial DNA): Inactive

SMILES: Nc1ccn([C@H]2CC[C@@H](CO)O2)c(=O)n1 [ddC, reference compound]
IC50 (cell growth; [10]): 20 µM
Anti-EBV EC50 (EBV [2]; [8]): Inactive
IC50 (mitochondrial DNA; read-out: mt DNA Content ID50): 0.02 µM

Second part, led by results:

EC50 (Ellen strain of VZV; [7]): 0.6 µg/mL (≈ 2.66 µM)
SMILES: Nc1nc2c(ncn2COCCO)c(=O)[nH]1 [ACV (acycloguanine), acyclovir, reference compound]
CC50 at 10 days [1]: > 100 µg/mL

EC50 (EBV [2]; [9]): 5 µM
SMILES: Nc1nc(O)c2ncn(COC(CO)CO)c2n1 [DHPG, gancyclovir, reference compound]
IC50 (cell growth; human, H1 cells): 75 µM
mt DNA Content ID50 (mitochondrial DNA): Inactive

EC50 (Ellen strain of VZV; [7]): 27.9 µg/mL (≈ 112 µM)
EC50 (EBV [2]; [9]): 3 µM
SMILES: O=c1[nH]c(=O)n([C@@H]2CO[C@H](CO)O2)cc1Cl [L-CI-OddU, (2S,4S)-1-[2-(Hydroxymethyl)-1,3-dioxolan-4-yl]-5-chlorouracil]
CC50 at 10 days [1]: > 100 µg/mL
IC50 (cell growth; human, H1 cells): > 100 µM
mt DNA Content ID50 (mitochondrial DNA): Inactive

EC50 (EBV [2]; [9]): 50 µM
SMILES: O=c1[nH]c(=O)n([C@@H]2CO[C@H](CO)O2)cc1F [L-F-OddU, (2S,4S)-1-[2-(Hydroxymethyl)-1,3-dioxolan-4-yl]-5 fluorouracil]
IC50 (cell growth; human, H1 cells): > 100 µM
mt DNA Content ID50 (mitochondrial DNA): Inactive
